# Data published in PubChem BioAssay AID1963426 (Molecular Pharmacology Branch, DTP, NCI, 2024).
# Tested on: 186277-243-T-J2-PDC complex spheroid growth, % test/control
# Test: Anticancer human tumor 186277-243-T-J2-PDC patient-derived colon adenocarcinoma cell line growth inhibition [Asc]
# Settings: for IC50: curve of first compound; for viability, T/C: stronger effect = lower value
# Description: Multicellular complex tumor spheroid response to apoptosis pathway targeting inhibitors Alrizomadlin, Pelcitoclax, and Dasminapant in combination with a variety of drugs and investigational agents in selected tumor cell lines
# The MDM2 inhibitor alrizomadlin, the Bcl-2/Bcl-xL inhibitor pelcitoclax, and the IAPs inhibitor dasminapant were evaluated both individually and in combination with standard of care and investigational anticancer small molecules within a complex spheroid model of solid tumors. . Complex spheroids include a stromal component modeled by human endothelial cells (HUVEC) and fibroblasts modeled by human mesenchymal stem cells (MSCs). The concentration ranges selected for each drug and investigational agent were based upon clinically achievable concentrations if the clinical Cmax of the agent was known.
# Compounds. The drugs and investigational agents: alrizomadlin (APG-115; NSC831270), pelcitoclax (APG-1252; NSC835773), dasminapant (APG-1387;NSC834197), TAK-243 (NSC785004), copanlisib (NSC809693), olaparib (NSC753686), talazoparib (NSC767125), cobimetinib (NSC 768068), eltanexor (KPT-8602, NSC 794443), abemaciclib (NSC 768073), sotorasib (NSC818433), adagrasib (NSC 831453), MRTX-1133 (NSC 836407), Iadademestat (ORY1001, NSC 806812), and RMC-4630 (NSC839698), were obtained from the NCI Developmental Therapeutics Program Chemical Repository. The FDA-approved anticancer drug set is available from the Developmental Therapeutics Program at https://dtp.cancer.gov/organization/dscb/obtaining/available plates.htm. […] The stock solutions were prepared in dimethyl sulfoxide (DMSO, Sigma-Aldrich, St. Louis, MO, cat. D2650) at 800-fold the tested concentration and stored at -70 degrees C prior to their use. All drugs and investigational agents were tested over a range starting from a high concentration at or near the clinical Cmax and decreasing in half-log increments. If the clinical Cmax for an agent had not been determined, the highest concentration tested was 10 microM.
# The patient-derived cancer (PDC) cell lines include five colon adenocarcinomas: 186277-243-T-J2-PDC, 616215-338-R-J1-PDC, 439559-082-T-J2-PDC, 463943-066-T-J2-PDC, and 519858-162-T-J1-PDC; three pancreatic carcinomas: 323965-272-R-J2-PDC, 521955-158-R6-J3-PDC, and 521955-158-R2-J5-PDC; two uterine sarcomas: 327498-152-R-J2-PDC and 993429-296-R-J1-PDC; two rhabdomyosarcomas: 755483-174-R-J1-PDC and 772245-204-R-J1-PDC; two soft tissue sarcomas: 126254-015-R-J1-PDC and 494315-158-R-J1-PDC; two malignant fibrous histiocytomas: 317291-083-R-J1-PDC and 596521-263-R-J1-PDC; two breast carcinomas: 171881-019-R-J1-PDC and 885512-296-R-J2-PDC; and one ovarian carcinoma: 6556581-035-R-J-PDC were obtained from the NCI PDMR, (https://pdmr.cancer.gov). The established cell lines HSSY-2 synovial sarcoma (RRID:CVCL 8719), SYO-1 synovial sarcoma (RRID:CVCL_7146), MPNST malignant peripheral neural sheath tumor were obtained from the Sloan Kettering Institute. The following established cell lines were purchased from the American Type Culture Collection (ATCC, Manassas, VA), Sor the received from the NCI repository:, PANC-1 pancreatic carcinoma (CRL-1469, RRID:CVCL_0480), OVCAR-5 ovarian carcinoma (RRID:CVCL_1628), OVCAR-8 ovarian carcinoma (RRID:CVCL_1629), , MCF-7 breast carcinoma (CRL-12584, RRID:CVCL_0031), MDA-MB-231 breast carcinoma (CRL-12532, RRID:CVCL_0062), NCI-H1876 small cell lung carcinoma (CRL-5902, RRID:CVCL_1503), NCI-H510A small cell lung carcinoma (HTB-184, RRID:CVCL_1565), NCI-H1417 (CRL-5869, RRID:CVCL_1469), and NCI-H196 small cell lung carcinoma (CRL-5823, RRID:CVCL_1509). Dr. Peter Houghton (Greehey Children's Cancer Research Institute, University of Texas Health Science Center, San Antonio, TX) provided Rh-18 rhabdomyosarcoma (RRID:CVCL_1659). Pooled donor human umbilical vein endothelial cells (HUVEC, Lonza, cat. CC-2519) and human mesenchymal stem cells (hMSC, Lonza, cat. PT-2501) were purchased from Lonza (Walkersville, MD).
# Cell Culture. […]
# [1] = second compound 0.03 µM, first compound 0.00316 µM
# [2] = second compound 0.03 µM, first compound 0.01 µM
# [3] = second compound 0.03 µM, first compound 0.0316 µM
# [4] = second compound 0.03 µM, first compound 0.1 µM
# [5] = second compound 0.0949 µM, first compound 0.00316 µM
# [6] = second compound 0.0949 µM, first compound 0.01 µM
# [7] = second compound 0.0949 µM, first compound 0.0316 µM
# [8] = second compound 0.0949 µM, first compound 0.1 µM
# [9] = second compound 0.3 µM, first compound 0.00316 µM
# [10] = second compound 0.3 µM, first compound 0.01 µM
# [11] = second compound 0.3 µM, first compound 0.0316 µM
# [12] = second compound 0.3 µM, first compound 0.1 µM
# [13] = second compound 0.949 µM, first compound 0.00316 µM
# [14] = second compound 0.949 µM, first compound 0.01 µM
# [15] = second compound 0.949 µM, first compound 0.0316 µM
# [16] = second compound 0.949 µM, first compound 0.1 µM
# [17] = second compound 3 µM, first compound 0.00316 µM
# [18] = second compound 3 µM, first compound 0.01 µM
# [19] = second compound 3 µM, first compound 0.0316 µM
# [20] = second compound 3 µM, first compound 0.1 µM
# [21] = second compound 0.03 µM, first compound 0.316 µM
# [22] = second compound 0.03 µM, first compound 1 µM
# [23] = second compound 0.0949 µM, first compound 0.316 µM
# [24] = second compound 0.0949 µM, first compound 1 µM
# [25] = second compound 0.3 µM, first compound 0.316 µM
# [26] = second compound 0.3 µM, first compound 1 µM
# [27] = second compound 0.949 µM, first compound 0.316 µM
# [28] = second compound 0.949 µM, first compound 1 µM
# [29] = second compound 3 µM, first compound 0.316 µM
# [30] = second compound 3 µM, first compound 1 µM
# 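Further: spheroids exposed to agents for 7 days.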
# 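Wherever viability, T/C is given: 100% = DMSO vehicle control wells.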
Structure (SMILES),IC50 (second compound 0.03 µM),IC50 (second compound 0.0949 µM),IC50 (second compound 0.3 µM),IC50 (second compound 0.949 µM),IC50 (second compound 3 µM),"viability, T/C [1]","viability, T/C [2]","viability, T/C [3]","viability, T/C [4]","viability, T/C [5]","viability, T/C [6]","viability, T/C [7]","viability, T/C [8]","viability, T/C [9]","viability, T/C [11]","viability, T/C [12]","viability, T/C [15]","viability, T/C [16]","viability, T/C [19]","viability, T/C [20]",also measured
Cn1ncnc1[C@H]1c2n[nH]c(=O)c3cc(F)cc(c23)N[C@@H]1c1ccc(F)cc1 + CCN1C(C(=O)NC23CCC(C(=O)O)(CC2)CC3)C(c2cccc(Cl)c2F)C2(C(=O)Nc3cc(Cl)ccc32)C12CCCCC2,> 100 nM,> 100 nM,> 100 nM,2.14 nM,< 0.316 nM,107%,91.3%,80.9%,87.2%,87.6%,77.5%,76.5%,65.8%,65.9%,63.1%,59.3%,42%,41.4%,22.9%,25.8%,"viability, T/C (second compound 0.03 µM, first compound 0.000316 µM): 130%; viability, T/C (second compound 0.03 µM, first compound 0.001 µM): 116%; viability, T/C (second compound 0.0949 µM, first compound 0.000316 µM): 98.3%; viability, T/C (second compound 0.0949 µM, first compound 0.001 µM): 82.1%; viability, T/C (second compound 0.3 µM, first compound 0.000316 µM): 75%; viability, T/C (second compound 0.3 µM, first compound 0.001 µM): 69%; viability, T/C [10]: 63.6%; viability, T/C (second compound 0.949 µM, first compound 0.000316 µM): 52.4%; viability, T/C (second compound 0.949 µM, first compound 0.001 µM): 56.5%; viability, T/C [13]: 49.4%; viability, T/C [14]: 43%; viability, T/C (second compound 3 µM, first compound 0.000316 µM): 30.1%; viability, T/C (second compound 3 µM, first compound 0.001 µM): 32.3%; viability, T/C [17]: 31.9%; viability, T/C [18]: 26%"
O=C(c1cc(Cc2n[nH]c(=O)c3ccccc23)ccc1F)N1CCN(C(=O)C2CC2)CC1 + CCN1C(C(=O)NC23CCC(C(=O)O)(CC2)CC3)C(c2cccc(Cl)c2F)C2(C(=O)Nc3cc(Cl)ccc32)C12CCCCC2,> 10000 nM,> 10000 nM,> 10000 nM,596 nM,< 31.6 nM,,,120%,135%,,,90%,95.1%,,77.8%,90.8%,54.3%,51.7%,31.8%,33.5%,"viability, T/C [21]: 102%; viability, T/C [22]: 99%; viability, T/C (second compound 0.03 µM, first compound 3.16 µM): 94.2%; viability, T/C (second compound 0.03 µM, first compound 10 µM): 82.4%; viability, T/C [23]: 93.9%; viability, T/C [24]: 85.6%; viability, T/C (second compound 0.0949 µM, first compound 3.16 µM): 91.6%; viability, T/C (second compound 0.0949 µM, first compound 10 µM): 79.4%; viability, T/C [25]: 72.1%; viability, T/C [26]: 67.2%; viability, T/C (second compound 0.3 µM, first compound 3.16 µM): 62.1%; viability, T/C (second compound 0.3 µM, first compound 10 µM): 60.8%; viability, T/C [27]: 54.6%; viability, T/C [28]: 45.7%; viability, T/C (second compound 0.949 µM, first compound 3.16 µM): 47%; viability, T/C (second compound 0.949 µM, first compound 10 µM): 40.9%; viability, T/C [29]: 29.9%; viability, T/C [30]: 32.4%; viability, T/C (second compound 3 µM, first compound 3.16 µM): 30.2%; viability, T/C (second compound 3 µM, first compound 10 µM): 26.5%"
O=C(c1ccc(F)c(F)c1Nc1ccc(I)cc1F)N1CC(O)([C@@H]2CCCCN2)C1 + CCN1C(C(=O)NC23CCC(C(=O)O)(CC2)CC3)C(c2cccc(Cl)c2F)C2(C(=O)Nc3cc(Cl)ccc32)C12CCCCC2,72.8 nM,54.1 nM,14.1 nM,4.49 nM,< 3.16 nM,119%,105%,96.8%,32.2%,90%,96%,75.8%,20%,66.6%,22.6%,5.9%,19%,5.17%,11.9%,4.93%,"viability, T/C [21]: 6.54%; viability, T/C [22]: 3.48%; viability, T/C [23]: 3.92%; viability, T/C [24]: 1.51%; viability, T/C [10]: 61.9%; viability, T/C [25]: 1.93%; viability, T/C [26]: 1.43%; viability, T/C [13]: 52.2%; viability, T/C [14]: 45%; viability, T/C [27]: 4.44%; viability, T/C [28]: 2.55%; viability, T/C [17]: 31.5%; viability, T/C [18]: 26.7%; viability, T/C [29]: 3.83%; viability, T/C [30]: 3.31%"
